Test results as given in patent US20060063759A1, “Tricyclic steroid hormone nuclear receptor modulators” (priority 2002, published 2006).

Legend:
[1] = molecular target: T1, human MR (Homo sapiens, UniProt P08235); experiment: Mineralocorticoid Receptor Binding Assay ([3H]-aldosterone); details: [3H]-aldosterone binding, human MR expressed in Sf9 cells; read-out: MR Ki
T1 construct: The full length human MR gene is cloned from a human kidney or human brain cDNA library; His tag from the pAcHLT vector (own knowledge); made in house; host or cells: Sf9 insect cells (baculovirus, pAcHLT transfer vector)
T1 sequence (P08235 1-984): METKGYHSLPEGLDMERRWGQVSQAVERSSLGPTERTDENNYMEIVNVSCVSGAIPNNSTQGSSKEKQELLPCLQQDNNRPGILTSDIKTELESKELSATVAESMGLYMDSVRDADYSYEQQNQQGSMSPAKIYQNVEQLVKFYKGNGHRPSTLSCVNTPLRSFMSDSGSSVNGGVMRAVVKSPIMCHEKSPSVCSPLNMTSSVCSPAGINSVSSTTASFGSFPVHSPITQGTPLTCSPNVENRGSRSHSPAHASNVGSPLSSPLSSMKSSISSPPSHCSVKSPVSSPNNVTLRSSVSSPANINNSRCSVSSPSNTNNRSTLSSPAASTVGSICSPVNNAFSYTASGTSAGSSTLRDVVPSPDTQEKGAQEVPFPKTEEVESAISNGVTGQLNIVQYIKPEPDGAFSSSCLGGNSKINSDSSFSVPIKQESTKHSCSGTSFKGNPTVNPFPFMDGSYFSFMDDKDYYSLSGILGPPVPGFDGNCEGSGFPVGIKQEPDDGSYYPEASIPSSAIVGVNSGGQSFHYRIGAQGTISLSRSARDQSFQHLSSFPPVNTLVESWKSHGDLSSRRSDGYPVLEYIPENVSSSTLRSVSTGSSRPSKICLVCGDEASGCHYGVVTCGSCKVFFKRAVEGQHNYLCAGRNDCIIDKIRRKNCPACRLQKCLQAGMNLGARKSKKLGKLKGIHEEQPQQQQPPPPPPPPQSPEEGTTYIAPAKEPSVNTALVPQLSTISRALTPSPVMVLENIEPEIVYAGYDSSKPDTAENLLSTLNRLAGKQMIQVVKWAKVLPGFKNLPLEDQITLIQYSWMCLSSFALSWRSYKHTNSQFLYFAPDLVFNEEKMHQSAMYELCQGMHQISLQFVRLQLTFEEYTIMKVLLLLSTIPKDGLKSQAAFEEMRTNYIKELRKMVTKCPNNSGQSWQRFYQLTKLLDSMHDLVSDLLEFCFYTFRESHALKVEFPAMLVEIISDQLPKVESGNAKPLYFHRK
Method in brief: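 Receptor source: freeze-thaw lysate of baculovirus-infected Sf9 cells carrying full-length human MR, 20-25 μg protein. Incubation ~16 h at 4 °C with shaking, pH 7.5 buffer containing 30 mM sodium molybdate and 10% glycerol.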

[2] = molecular target: T2, glucocorticoid receptor (Homo sapiens, UniProt P04150); experiment: Glucocorticoid Receptor Binding Assay ([3H]-dexamethasone, A549 cell extract); details: [3H]-dexamethasone binding, read-out: GR Ki
T2 construct: containing 50-200 ug of A549 cell extract and 1.86 nM [^3H]-dexamethasone; host or cells: A549 human lung epithelial cells (sonicated cell extract)
T2 sequence (P04150 1-777): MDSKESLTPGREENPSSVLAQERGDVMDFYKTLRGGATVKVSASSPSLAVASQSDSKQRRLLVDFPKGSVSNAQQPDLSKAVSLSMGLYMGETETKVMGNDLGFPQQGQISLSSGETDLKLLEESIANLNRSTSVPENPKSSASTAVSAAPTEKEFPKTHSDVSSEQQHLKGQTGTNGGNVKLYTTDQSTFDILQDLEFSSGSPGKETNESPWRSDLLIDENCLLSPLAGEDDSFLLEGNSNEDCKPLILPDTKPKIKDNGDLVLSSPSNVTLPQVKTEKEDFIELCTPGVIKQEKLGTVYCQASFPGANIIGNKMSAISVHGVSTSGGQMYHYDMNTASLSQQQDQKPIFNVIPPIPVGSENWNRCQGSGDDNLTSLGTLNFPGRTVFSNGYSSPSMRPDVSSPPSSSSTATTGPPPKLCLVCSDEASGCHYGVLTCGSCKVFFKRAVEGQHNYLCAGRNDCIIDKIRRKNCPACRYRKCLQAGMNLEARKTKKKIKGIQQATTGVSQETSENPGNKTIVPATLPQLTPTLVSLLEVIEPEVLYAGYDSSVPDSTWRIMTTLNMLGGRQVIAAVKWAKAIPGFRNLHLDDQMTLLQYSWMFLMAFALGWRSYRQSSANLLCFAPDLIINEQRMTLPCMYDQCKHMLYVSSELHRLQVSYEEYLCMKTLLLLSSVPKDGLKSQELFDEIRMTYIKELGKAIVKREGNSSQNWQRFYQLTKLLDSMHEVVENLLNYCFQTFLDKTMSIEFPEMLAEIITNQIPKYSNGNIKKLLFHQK
Method in brief: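 Displacement of [3H]-dexamethasone (1.86 nM) from glucocorticoid receptor in sonicated A549 lung epithelial cell extracts, 16 h at 4 °C, pH 7.2 molybdate-containing buffer. Bound radioactivity was scintillation-counted after charcoal/dextran stripping of free ligand.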

Ki [1] [nM]	Ki [2] [nM]	SMILES
< 500	< 500	CS(=O)(=O)Nc1cccc(/C=C2\c3ccccc3CCc3cc(C(=O)O)ccc32)c1 [Example 417]
< 500	< 500	CN(C)S(=O)(=O)Nc1ccc(C=C2c3ccccc3CCc3ccccc32)cc1 [Example 113, Dimethylsulfamic acid [4-(10,11-dihydro-dibenzo[a,d]cyclohepten-5-ylidenemethyl)-phenyl]-amide]
< 500	< 10000	COc1ccc2c(c1)CCc1ccccc1C2=Cc1ccc(N)cc1 (mixture of isomers) [Example 166, 4-(2-Methoxy-10,11-dihydro-dibenzo[a,d]cyclohepten-5-ylidenemethyl)-phenylamine]
< 500	< 500	C/C(=C1/c2ccccc2COc2cc(F)ccc21)c1cccc(NS(C)(=O)=O)c1 [Example 807]
< 500	< 500	CC/C(=C1/c2ccccc2COc2cc(F)ccc21)c1cccc(NS(C)(=O)=O)c1 [Example 812]
< 500	< 500	O=c1[nH]c2cc(/C=C3\c4ccccc4CCc4cc(F)ccc43)ccc2s1 [Example 469]
< 500	< 1000	Oc1cc(C=C2c3ccccc3CCc3ccccc32)ccc1Cl [Example 157, 2-Chloro-5-(10,11-dihydro-dibenzo[a,d]cyclohepten-5-ylidenemethyl)-phenol]
< 500	< 500	O=C(Nc1cccc(/C=C2/c3ccccc3CCc3cc(Cl)ccc32)c1)C(F)(F)F [Example 414]
< 500	< 500	Cc1cccc2c1/C(=C\c1cccc(NS(C)(=O)=O)c1)c1ccccc1CC2 [Example 314]
< 500	< 500	Oc1cc(C=C2c3ccccc3CCc3ccccc32)ccc1F [Example 149, 5-(10,11-Dihydro-dibenzo[a,d]cyclohepten-5-ylidenemethyl)-2-fluoro-phenol]
< 500	< 500	CS(=O)(=O)Nc1cccc(/C=C2\c3ccccc3CSc3cc(Cl)ccc32)c1 [Example 742]
< 500	< 500	Oc1cccc(/C=C2\c3ccccc3CCc3ncccc32)c1 [Example 254, (E)-3-(10,11-Dihydro-benzo[4,5]cyclohepta[1,2-b]pyridin-5-ylidenemethyl)-phenol]
< 500	< 500	CSc1cccc2c1CCc1ccccc1C2=Cc1cccc(NS(C)(=O)=O)c1 [Example 319]
< 500	< 10000	O=c1[nH]c2ccc(/C=C3/c4ccc(F)cc4CCc4ncsc43)cc2[nH]1 [Example 566]
< 500	< 500	CS(=O)(=O)Nc1cccc(C[C@H]2c3ccccc3CCc3cc(F)ccc32)c1 [Example 383]
< 500	< 500	COc1ccc2c(c1)SCc1ccccc1/C2=C\c1cccc(NS(C)(=O)=O)c1 [Example 694]
< 500	< 500	Fc1ccc2c(c1)CCc1ncccc1/C2=C/c1ccccc1C(F)F [Example 539]
< 500	< 500	C/C(=C1\c2ccccc2COc2cc(C)c(Br)cc21)c1cccc(NS(C)(=O)=O)c1 [Example 785]
< 500	< 500	C/C(=C1/c2ccc(C)cc2CCc2cc(F)ccc21)c1cccc(NS(C)(=O)=O)c1 [Example 832]
< 500	< 500	C/C(=C1/c2ccccc2COc2c(F)cccc21)c1cccc(NS(C)(=O)=O)c1 [Example 788]

Ki [1] [nM]	Ki [2] [nM]	SMILES
< 500	< 500	N#Cc1cccc2c1CCc1ccccc1/C2=C/c1cccc(O)c1 [Example 363]
< 500	< 10000	Cc1ccccc1C=C1c2ccccc2CCc2ccccc21 [Example 130, 5-(2-Methyl-benzylidene)-10,11-dihydro-5H-dibenzo [a,d]cycloheptene]
< 500	< 500	Oc1cc(O)cc(C=C2c3ccccc3CCc3ccccc32)c1 [Example 54, 5-(10,11-Dihydro-dibenzo[a,d]cyclohepten-5-ylidenemethyl)-benzene-1,3-diol]
< 500	< 500	CS(=O)(=O)Nc1cccc(/C=C2/c3cc(F)ccc3COc3ccccc32)c1 [Example 729]
< 500	< 10000	CS(=O)(=O)Nc1cccc(/C=C2/c3cccnc3CCc3c(F)cccc32)c1 [Example 576]
< 500	< 10000	Fc1ccc2c(c1)CCc1ncccc1/C2=C\c1cccc(C(F)F)c1 [Example 542]
< 500	< 500	Nc1nc2ccc(C=C3c4ccccc4CCc4ccccc43)cc2s1 [Example 442]
< 500	< 500	C/C(=C1\c2ccc(Cl)cc2COc2cc(F)ccc21)c1cccc(NS(C)(=O)=O)c1 [Example 804]
< 500	< 1000	CS(=O)(=O)Nc1ccc2c(c1)CCc1ccccc1/C2=C\c1cccc(O)c1 [Example 338]
< 500	< 500	COc1cccc2c1COc1ccccc1/C2=C/c1cccc(NS(C)(=O)=O)c1 [Example 708]
< 500	< 500	CS(=O)(=O)Nc1cccc(/C=C2\c3ccccc3COc3ccccc32)c1 [Example 267, N-[3-(6H-Dibenzo[b,e]oxepine-11-ylidenemethyl)-phenyl]-methanesulfonamide]
< 500	< 10000	Nc1cccc(/C=C2\c3ccc(Cl)cc3CCc3sccc32)c1 [Example 478, 3-(7-Chloro-9,10-dihydro-1-thia-benzo[f]azulen-4-ylidenemethyl)-phenylamine]
< 500	< 500	CN(c1cccc(/C=C2/c3ccccc3COc3c(Cl)cccc32)c1)S(C)(=O)=O [Example 666]
< 500	< 1000	CN1Cc2ccccc2C(=Cc2cccc(NS(C)(=O)=O)c2)c2ccccc21 [Example 653]
< 500	< 10000	COc1ccc(C(=C2c3ccccc3CCc3ccccc32)c2cccc(NS(C)(=O)=O)c2)cc1 [Example 768]
< 500	< 10000	Cn1cnc(S(=O)(=O)Nc2cccc(C=C3c4ccccc4CCc4cc(Cl)ccc43)c2)c1 [Example 296]
< 500	< 500	CS(=O)(=O)Nc1cccc(/C(F)=C2\c3ccccc3COc3ccccc32)c1 [Example 806]
< 500	< 500	CS(=O)(=O)Nc1cccc(/C=C2\c3ccc(Cl)cc3CCc3sc(Cl)cc32)c1 [Example 482, N-[3-(2,7-Dichloro-9,10-dihydro-1-thia-benzo[f]azulen-4-ylidenemethyl)-phenyl]-methanesulfonamide]
< 500	< 10000	Fc1ccc(/C=C2/c3ccc(F)cc3CCc3ncccc32)cc1 [Example 581]
< 500	< 500	C(=C1c2ccccc2CCc2ccccc21)c1cn[nH]c1 [Example 439]
